The results in this text go back to ChEMBL document CHEMBL1201862, “PubChem BioAssay data set” (2004).

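All cell lines were grown in 96-well plates and treated with compound for 48 hours. GI50 = concentration required for 50% inhibition of growth.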 The source made the active and inactive calls. Cut-off read from the data, not from the text of the source: active = GI50 up to about 1.1 µM and inactive = higher.

Experiment in all cases: DTP human tumour cell line panel, 48 h
Experiment [1] deals with MDA-MB-231.
In experiment [2] the test system is NCI-H460.
Experiment [3] concerns HOP-62.
Experiment [4] relates to OVCAR-5.
Experiment [5] has as its system CCRF-CEM.
In experiment [6] the test system is OVCAR-8.
Experiment [7] has as its system SK-MEL-28.
Experiment [8] has as its system M14.
For experiment [9], the system named is OVCAR-3.
Experiment [10] relates to TK-10.
Experiment [11] relates to SNB-75.
Experiment [12] relates to HT-29.
The subject of experiment [13] is SR.
Experiment [14] deals with SW-620.
Experiment [15] deals with COLO 205.
The test system of experiment [16] is MOLT-4.
The test system of experiment [17] is UACC-62.
Experiment [18] deals with OVCAR-4.
Experiment [19] has as its system IGROV-1.
For experiment [20], the system named is HCC 2998.

With `Clc1ccc(-c2cn3c(nc4ccccc43)c(-c3ccccc3)n2)cc1`, the GI50 was 42.6 µM (inactive) in [1]; 18 µM (inactive) in experiment [2]; 11.5 µM (inactive) in experiment [3]; > 38.9 µM (inactive) in experiment [4]; > 70.8 µM (inactive) in [5]; 12.1 µM (inactive) in experiment [6]. In addition, the GI50 was 39.8 µM (inactive) in experiment [7]; 28.3 µM (inactive) in experiment [8]; 27.7 µM (inactive) in experiment [9]; 22 µM (inactive) in experiment [10]; 9.51 µM (inactive) in experiment [11]; 10.8 µM (inactive) in experiment [12]. Also, the GI50 is > 82 µM (inactive) in experiment [13]; 43.3 µM (inactive) in experiment [14]; 40.2 µM (inactive) in experiment [15]; > 100 µM (inactive) in [16]; 11.4 µM (inactive) in experiment [17]; 5.85 µM (inactive) in experiment [18]. Further, the GI50 in [19] is 24 µM (inactive); in experiment [20], 44.9 µM (inactive).

On to `Clc1sc(Cl)c2c1[C@H](Br)C[C@@H]2Cl`, for which the GI50 in experiment [1] was 21.4 µM (inactive); in [2], 41.6 µM (inactive); in [3] it was 83.9 µM (inactive); in experiment [4], > 100 µM (inactive); in [5], 17.5 µM (inactive); in experiment [6] it was 27.6 µM (inactive). In addition, the GI50 in experiment [7] is 29 µM (inactive); in experiment [8], 20.3 µM (inactive); in experiment [9] it was 23.8 µM (inactive); in experiment [10] it was 33.7 µM (inactive); in [11] it was > 100 µM (inactive); in experiment [12], 35 µM (inactive). The GI50 was 15.7 µM (inactive) in experiment [13]; 21.6 µM (inactive) in [14]; 20.1 µM (inactive) in experiment [15]; 19.1 µM (inactive) in experiment [16]; 20.9 µM (inactive) in experiment [17]; 55.8 µM (inactive) in experiment [18]. Also, the GI50 was 13.2 µM (inactive) in experiment [19] and 37.8 µM (inactive) in [20].

For the compound `CCOC(=O)NC(Nc1ccc(F)c(F)c1)(C(=O)OCC)C(F)(F)F` (stereo not given), the GI50 in experiment [1] is > 100 µM (inactive); in experiment [2], > 100 µM (inactive); in experiment [3], > 100 µM (inactive); in experiment [4], > 100 µM (inactive); in [5], > 100 µM (inactive); in [6] it was 46 µM (inactive). In addition, the GI50 is > 100 µM (inactive) in [7]; 0.826 µM (active) in experiment [8]; > 100 µM (inactive) in [9]; > 100 µM (inactive) in experiment [10]; 98.9 µM (inactive) in experiment [11]; > 100 µM (inactive) in [12]. Besides, the GI50 in [13] was > 100 µM (inactive); in [14], 17.4 µM (inactive); in [15], > 60.4 µM (inactive); in experiment [16] it was > 100 µM (inactive); in [17] it was 0.186 µM (active); in [18] it was > 46.3 µM (inactive). Moreover, the GI50 in experiment [19] is > 28.1 µM (inactive); in experiment [20], > 100 µM (inactive).

Consider `COc1ccc2nc3ccccc3c(NCCCCN(C)CCCl)c2c1`, for which the GI50 in [1] was 0.144 µM (active); in experiment [2] it was 0.014 µM (active); in experiment [3] it was 0.082 µM (active); in [4] it was 0.186 µM (active); in [5] it was 0.013 µM (active); in experiment [6], 0.0254 µM (active). Also, the GI50 is 0.367 µM (active) in experiment [7]; 0.0711 µM (active) in [8]; 0.0392 µM (active) in [9]; 0.638 µM (active) in experiment [10]; 0.122 µM (active) in experiment [11]; 0.0178 µM (active) in experiment [12]. In addition, the concentration for 50% growth inhibition (GI50) in experiment [13] was < 0.01 µM (active); in experiment [14] it was 0.0151 µM (active); in [15] it was < 0.01 µM (active); in experiment [16], < 0.01 µM (active); in experiment [17] it was 0.0373 µM (active); in experiment [18], 0.0889 µM (active). Further, the GI50 is 0.0408 µM (active) in experiment [19] and 0.0893 µM (active) in experiment [20].

What is called GI50 is the concentration that inhibits growth by half.
